In patent publication US12350259B2, “Methods of treating migraine” (Allergan Pharmaceuticals International Limited, priority 2021, dated 2025):
Like-named read-outs stand apart in the source and are kept apart here.

How the values were obtained:
[1] = target: OCT1 (Homo sapiens, UniProt O15245); assay: Transporter inhibition; format: in vitro ADME
[2] = system: patients with episodic migraine; assay: Study 1 (NCT03777059): preventive treatment of episodic migraine, efficacy; format: in vivo, human
Procedure: The studies enrolled patients with at least a 1-year history of migraine with or without aura, according to the International Classification of Headache Disorders (ICHD-3) diagnostic criteria. In Study 1 (NCT03777059), 910 patients were randomized 1:1:1:1 to receive atogepant 10 mg (N=222), atogepant 30 mg (N=230), atogepant 60 mg (N=235), or placebo (N=223), once daily for 12 weeks. In Study 2 (NCT02848326), 652 patients were randomized 1:2:2:2 to receive atogepant 10 mg (N=94), atogepant 30 mg (N=185), atogepant 60 mg (N=187), or placebo (N=186), once daily for 12 weeks. In both studies, patients were allowed to use acute headache treatments (i.e., triptans, ergotamine derivatives, NSAIDs, acetaminophen, and opioids) as needed. The use of a concomitant medication that acts on the CGRP pathway was not permitted for either acute or preventive treatment of migraine. The studies excluded patients with myocardial infarction, stroke, or transient ischemic attacks within six months prior to screening. The primary efficacy endpoint was the change from baseline in mean monthly migraine days (MMD) across the 12-week treatment period. Secondary endpoints included the change from baseline in mean monthly headache days, the change from baseline in mean monthly acute medication use days, the proportion of patients achieving at least a 50% reduction from baseline in mean MMD (3-month average), the change from baseline in mean monthly Activity Impairment in Migraine-Diary (AIM-D) Performance of Daily Activities (PDA) domain scores, the change from baseline in mean monthly AIM-D Physical Impairment (PI) domain scores, across the 12 week treatment period, and the change from baseline at Week 12 for Migraine Specific Quality of Life Questionnaire version 2.1 (MSQ v2.1) Role Function-Restrictive (RFR) domain scores. The AIM-D evaluates difficulty with performance of daily activities (PDA domain) and physical impairment (PI domain) due to migraine, with scores ranging from 0 to 100. Higher scores indicate greater impact of migraine, and reductions from baseline indicate improvement. The MSQ v2.1 Role Function-Restrictive (RFR) domain score assesses how often migraine impacts function related to daily social and work-related activities over the past 4 weeks, with scores ranging from 0 to 100. Higher scores indicate lesser impact of migraine on daily activities, and increases from baseline indicate improvement.

[3] = target: CYP2D6 (Homo sapiens, UniProt P10635); assay: In vitro CYP inhibition; format: in vitro ADME; settings: clinically relevant concentrations
[4] = target: OATP1B1 (Homo sapiens, UniProt Q9Y6L6); assay: Transporter substrate; format: in vitro ADME
[5] = target: CYP2C8 (Homo sapiens, UniProt P10632); assay: In vitro CYP inhibition; format: in vitro ADME; settings: clinically relevant concentrations
[6] = target: MATE 1 (Homo sapiens, UniProt Q96FL8); assay: Transporter inhibition; format: in vitro ADME
[7] = Atogepant-itraconazole drug interaction study: atogepant plasma PK; format: in vivo, human; settings: for Tmax / AUC(0-inf) / AUC(0-t) / Cmax / half-life / Vd/F: both sexes, human, plasma, oral; for Vd/F: read-out: Vz/F
Procedure: An open-label, single-sequence drug-drug interaction study was carried out to evaluate the effect of CYP3A4 inhibition by oral itraconazole (200 mg per day) on the pharmacokinetics of a single oral dose of atogepant (60 mg) in healthy subjects.
This study was a single-center, single-sequence, open-label, 2-period PK drug-interaction study in 40 healthy male and female subjects aged 18 through 45 years.
Subjects who satisfied the inclusion and exclusion criteria were assigned to a single fixed-treatment sequence in which they received Treatment A followed by Treatment B; there was a 7-day washout period between treatments. • Treatment A: Single oral 60 mg dose of atogepant (tablet) under fasted conditions on Day 1 • Treatment B • Days 8-14: Itraconazole 200 mg (tablet) orally once daily under fed conditions. • Day 15: Itraconazole 200 mg coadministered with atogepant 60 mg (tablet) under fasted conditions. • Days 16 to 17: Itraconazole 200 mg (tablet) once daily under fed conditions.
Atogepant was administered in the fasted state in this study. Administration of itraconazole with food enhances its bioavailability. Accordingly, to maximize the CYP3A4 inhibition effect, itraconazole was administered with food on all the itraconazole treatment days except day 15. On day 15, both itraconazole and atogepant were administered under fasted state. Fasted state administration of itraconazole on Day 15 was unlikely to affect the CYP3A4 inhibition effect due to the attainment of steady state (of CYP3A4 activity) and long T1/2 of itraconazole (34 to 42 hours) following repeat dose administration.

[8] = Study 1, atogepant 10 mg once daily
[9] = Study 1, atogepant 30 mg once daily
[10] = Study 1, atogepant 60 mg once daily
[11] = Treatment A: atogepant 60 mg single dose alone, fasted
[12] = Treatment B: atogepant 60 mg + steady state itraconazole 200 mg
[13] = atogepant + itraconazole vs atogepant alone
[14] = co-administration with itraconazole (strong CYP3A4 inhibitor), healthy subjects

Sequence of MATE 1 (Q96FL8 whole entry): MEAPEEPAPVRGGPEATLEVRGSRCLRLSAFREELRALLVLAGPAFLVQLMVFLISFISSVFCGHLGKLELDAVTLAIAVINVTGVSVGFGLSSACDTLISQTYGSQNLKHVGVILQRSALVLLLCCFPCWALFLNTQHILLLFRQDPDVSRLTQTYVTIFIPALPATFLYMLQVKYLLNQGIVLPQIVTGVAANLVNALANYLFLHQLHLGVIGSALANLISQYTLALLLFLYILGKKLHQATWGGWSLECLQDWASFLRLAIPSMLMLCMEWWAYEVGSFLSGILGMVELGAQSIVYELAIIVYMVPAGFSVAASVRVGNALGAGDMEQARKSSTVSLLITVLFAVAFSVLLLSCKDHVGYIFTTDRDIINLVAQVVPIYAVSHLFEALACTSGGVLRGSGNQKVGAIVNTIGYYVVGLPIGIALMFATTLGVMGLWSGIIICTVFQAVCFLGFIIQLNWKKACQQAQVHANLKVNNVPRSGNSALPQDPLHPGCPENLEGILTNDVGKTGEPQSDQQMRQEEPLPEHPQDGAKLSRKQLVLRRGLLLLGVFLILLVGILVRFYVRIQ
Sequence of CYP2D6 (P10635 whole entry): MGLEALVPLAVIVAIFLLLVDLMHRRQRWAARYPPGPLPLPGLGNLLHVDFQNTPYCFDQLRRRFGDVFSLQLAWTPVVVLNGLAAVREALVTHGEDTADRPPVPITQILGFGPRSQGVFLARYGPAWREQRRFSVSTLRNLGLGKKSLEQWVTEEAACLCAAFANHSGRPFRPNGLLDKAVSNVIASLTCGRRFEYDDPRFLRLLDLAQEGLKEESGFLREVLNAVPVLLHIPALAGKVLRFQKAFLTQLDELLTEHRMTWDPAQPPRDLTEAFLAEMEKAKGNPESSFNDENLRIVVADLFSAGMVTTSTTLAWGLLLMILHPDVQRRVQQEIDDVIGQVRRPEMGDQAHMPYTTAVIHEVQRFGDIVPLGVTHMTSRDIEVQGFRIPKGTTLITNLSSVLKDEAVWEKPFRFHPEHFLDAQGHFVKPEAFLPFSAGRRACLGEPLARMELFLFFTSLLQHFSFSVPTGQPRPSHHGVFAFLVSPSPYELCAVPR
Sequence of OCT1 (O15245 whole entry): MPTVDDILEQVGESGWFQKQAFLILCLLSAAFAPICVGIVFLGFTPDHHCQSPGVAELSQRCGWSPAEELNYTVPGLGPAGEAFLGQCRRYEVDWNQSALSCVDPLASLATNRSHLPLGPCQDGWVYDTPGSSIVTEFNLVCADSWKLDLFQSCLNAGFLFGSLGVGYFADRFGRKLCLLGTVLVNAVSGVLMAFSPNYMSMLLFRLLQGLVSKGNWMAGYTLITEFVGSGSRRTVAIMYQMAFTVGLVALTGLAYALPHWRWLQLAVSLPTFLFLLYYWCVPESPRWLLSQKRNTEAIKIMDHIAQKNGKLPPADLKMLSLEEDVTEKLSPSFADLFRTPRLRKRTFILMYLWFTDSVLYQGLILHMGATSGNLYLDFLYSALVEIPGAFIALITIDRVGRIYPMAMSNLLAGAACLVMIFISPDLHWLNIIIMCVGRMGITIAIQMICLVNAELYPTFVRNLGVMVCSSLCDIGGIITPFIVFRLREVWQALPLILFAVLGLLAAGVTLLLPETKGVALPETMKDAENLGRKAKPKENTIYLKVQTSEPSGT
Sequence of CYP2C8 (P10632 whole entry): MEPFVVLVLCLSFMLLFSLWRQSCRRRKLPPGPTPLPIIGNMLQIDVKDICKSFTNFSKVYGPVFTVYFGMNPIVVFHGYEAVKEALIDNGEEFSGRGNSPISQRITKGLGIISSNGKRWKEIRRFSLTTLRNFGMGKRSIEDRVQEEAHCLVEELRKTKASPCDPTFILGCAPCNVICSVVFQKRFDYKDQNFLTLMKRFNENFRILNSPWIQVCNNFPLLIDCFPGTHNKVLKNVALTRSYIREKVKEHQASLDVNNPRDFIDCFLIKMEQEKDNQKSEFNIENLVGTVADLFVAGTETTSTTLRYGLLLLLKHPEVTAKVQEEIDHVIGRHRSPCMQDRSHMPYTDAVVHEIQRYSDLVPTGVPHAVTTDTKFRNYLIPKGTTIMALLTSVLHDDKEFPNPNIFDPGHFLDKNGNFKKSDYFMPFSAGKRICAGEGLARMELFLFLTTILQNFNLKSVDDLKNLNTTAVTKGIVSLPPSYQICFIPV
Sequence of OATP1B1 (Q9Y6L6 whole entry): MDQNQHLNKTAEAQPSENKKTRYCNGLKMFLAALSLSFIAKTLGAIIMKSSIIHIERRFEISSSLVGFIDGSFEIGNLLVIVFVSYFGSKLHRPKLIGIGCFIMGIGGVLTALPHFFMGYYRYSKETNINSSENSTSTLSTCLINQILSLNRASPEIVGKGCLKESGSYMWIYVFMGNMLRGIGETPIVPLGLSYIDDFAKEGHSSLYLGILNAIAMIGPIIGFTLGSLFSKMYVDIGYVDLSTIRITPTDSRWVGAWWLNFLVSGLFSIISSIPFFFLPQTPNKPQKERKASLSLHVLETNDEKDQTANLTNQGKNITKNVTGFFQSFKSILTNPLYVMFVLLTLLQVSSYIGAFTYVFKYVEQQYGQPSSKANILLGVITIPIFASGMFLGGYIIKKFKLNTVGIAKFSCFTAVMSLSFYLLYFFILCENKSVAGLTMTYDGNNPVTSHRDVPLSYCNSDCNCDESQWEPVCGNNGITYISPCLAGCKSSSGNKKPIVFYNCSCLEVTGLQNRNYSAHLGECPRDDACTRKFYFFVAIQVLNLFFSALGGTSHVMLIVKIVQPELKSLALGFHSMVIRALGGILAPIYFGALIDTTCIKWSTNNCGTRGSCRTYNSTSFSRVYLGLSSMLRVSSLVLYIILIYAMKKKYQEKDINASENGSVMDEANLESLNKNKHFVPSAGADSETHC

## C[C@@H]1[C@H](c2c(F)ccc(F)c2F)C[C@H](NC(=O)c2cnc3c(c2)C[C@@]2(C3)C(=O)Nc3ncccc32)C(=O)N1CC(F)(F)F [atogepant, (3′S)-N-[(3S,5S,6R)-6-methyl-2-oxo-1-(2,2,2-trifluoroethyl)-5-(2,3,6-trifluorophenyl)piperidin-3-yl]-2′-oxo-1′,2′,5,7-tetrahydrospiro[cyclopenta[b]pyridine-6,3′-pyrrolo[2,3-b]pyridine]-3-carboxamide]
[1]
  inhibition of OCT1: weak inhibitor
[2]; [8]
  AIM-D PDA Domain across 12 weeks, difference from placebo: −1.2
  AIM-D PDA Domain across 12 weeks, mean change from baseline: −7.3
  AIM-D PI Domain across 12 weeks, difference from placebo: −1.1
  AIM-D PI Domain across 12 weeks, mean change from baseline: −5.1
  MSQ v2.1 RFR Domain at week 12, difference from placebo: 9.9
  MSQ v2.1 RFR Domain at week 12, mean change from baseline: 30.4
  Monthly Acute Medication Use Days across 12 weeks, difference from placebo: −1.3
  Monthly Acute Medication Use Days across 12 weeks, mean change from baseline: −3.7
  Monthly Headache Days across 12 weeks, difference from placebo: −1.4
  Monthly Headache Days across 12 weeks, mean change from baseline: −3.9
  Monthly Migraine Days (MMD) across 12 weeks, difference from placebo: −1.2
  Monthly Migraine Days (MMD) across 12 weeks, mean change from baseline: −3.7
  ≥50% MMD Responders across 12 weeks, % Responders: 56%
  ≥50% MMD Responders across 12 weeks, difference from placebo: 27%
[2]; [9]
  AIM-D PDA Domain across 12 weeks, difference from placebo: −2.5
  AIM-D PDA Domain across 12 weeks, mean change from baseline: −8.6
  AIM-D PI Domain across 12 weeks, difference from placebo: −2.0
  AIM-D PI Domain across 12 weeks, mean change from baseline: −6.0
  MSQ v2.1 RFR Domain at week 12, difference from placebo: 10.1
  MSQ v2.1 RFR Domain at week 12, mean change from baseline: 30.5
  Monthly Acute Medication Use Days across 12 weeks, difference from placebo: −1.3
  Monthly Acute Medication Use Days across 12 weeks, mean change from baseline: −3.7
  Monthly Headache Days across 12 weeks, difference from placebo: −1.5
  Monthly Headache Days across 12 weeks, mean change from baseline: −4.0
  Monthly Migraine Days (MMD) across 12 weeks, difference from placebo: −1.4
  Monthly Migraine Days (MMD) across 12 weeks, mean change from baseline: −3.9
  ≥50% MMD Responders across 12 weeks, % Responders: 59%
  ≥50% MMD Responders across 12 weeks, difference from placebo: 30%
[2]; [10]
  AIM-D PDA Domain across 12 weeks, difference from placebo: −3.3
  AIM-D PDA Domain across 12 weeks, mean change from baseline: −9.4
  AIM-D PI Domain across 12 weeks, difference from placebo: −2.5
  AIM-D PI Domain across 12 weeks, mean change from baseline: −6.5
  MSQ v2.1 RFR Domain at week 12, difference from placebo: 10.8
  MSQ v2.1 RFR Domain at week 12, mean change from baseline: 31.3
  Monthly Acute Medication Use Days across 12 weeks, difference from placebo: −1.5
  Monthly Acute Medication Use Days across 12 weeks, mean change from baseline: −3.9
  Monthly Headache Days across 12 weeks, difference from placebo: −1.7
  Monthly Headache Days across 12 weeks, mean change from baseline: −4.2
  Monthly Migraine Days (MMD) across 12 weeks, difference from placebo: −1.7
  Monthly Migraine Days (MMD) across 12 weeks, mean change from baseline: −4.2
  ≥50% MMD Responders across 12 weeks, % Responders: 61%
  ≥50% MMD Responders across 12 weeks, difference from placebo: 32%
[3]
  inhibition of CYP2D6: not an inhibitor
[4]
  substrate of OATP1B1: substrate
[5]
  inhibition of CYP2C8: not an inhibitor
[6]
  inhibition of MATE 1: weak inhibitor
[7]; [11]
  CL/F: 19.2 L/h
  λz: 0.0825 h⁻¹
  AUC(0-inf): 3470 ng·h/mL
  AUC(0-t): 3440 ng·h/mL
  Cmax: 740 ng/mL
  half-life: 11.2 h
  Vd/F: 292 L
[7]; [12]
  CL/F: 3.46 L/h
  λz: 0.0496 h⁻¹
  AUC(0-inf): 18900 ng·h/mL
  AUC(0-t): 18500 ng·h/mL
  Cmax: 1580 ng/mL
  half-life: 14.9 h
  Vd/F: 73.4 L
[7]; [13]
  AUC0-t GM Ratio Treatment B/Treatment A: 543.26%
  AUC0-∞ GM Ratio Treatment B/Treatment A: 550.78%
  Cmax GM Ratio Treatment B/Treatment A: 215.11%
[7]; 60 mg, Treatment A: atogepant 60 mg single dose alone, fasted, read-out: Tmax (median)
  Tmax: 2 h
[7]; atogepant + itraconazole vs atogepant alone, read-out: Tmax difference of medians
  Tmax: 1 h
[7]; Treatment B: atogepant 60 mg + steady state itraconazole 200 mg, read-out: Tmax (median)
  Tmax: 3 h
[7]; [14]
  increase in atogepant AUC: 5.5 fold
  increase in atogepant Cmax: 2.15 fold
